ChEMBL document CHEMBL1139944, “Synthesis and evaluation of new difluoromethyl azoles as antileishmanial agents” (Eur J Med Chem, 2007)

Each compound was assayed on Leishmania amazonensis (assay: Antileishmanial activity against Leishmania amazonensis promastigote by MTT method).
Format: functional, organism-based

| Structure (SMILES) | IC50 |
| --- | --- |
| FC(F)c1cn(-c2cccc(Cl)c2)nn1 | 2600 nM |
| O=Cc1cn(-c2cccc(Cl)c2)nn1 | 2800 nM |
| Cc1ncc(C(F)F)n1-c1ccc(Cl)cc1 | 1700 nM |
